Patent US20130267494A1, “1,4-OXAZEPANE DERIVATIVES” (priority 2010, published 2013)
Where a name gives a salt, the structure may show the parent alone.

How the values were obtained:
Format in all cases: cell-based
[1] = biological target: T1, human dopamine transporter (Homo sapiens, UniProt Q01959); experiment: Inhibitory action on human dopamine transporter ([3H]-dopamine uptake in CHO cells); conditions: relative to inhibitory activity of 100 μM Nomifensine as 100%; for inhibition at 1 µM / inhibition at 10 µM: CHO, read-out: inhibitory rate (%)
T1 construct: expressed in transfected cells
Description: SRα promoter contained in pTB1411 described in JP-A-H5-076385 was cleaved with restriction enzyme […](manufactured by TAKARA BIO INC.), blunt-ended, further cleaved with restriction enzyme EcoRI (manufactured by TAKARA BIO INC.), and fragmented. On the other hand, pCI vector was cleaved with restriction enzyme BglII (manufactured by TAKARA BIO INC.), blunt-ended with T4 DNA polymerase, and further cleaved with restriction enzyme EcoRI (manufactured by TAKARA BIO INC.). Into this site was inserted an SRa promoter fragment to give pCI-SRa. Then, pCI-SRa was cleaved with restriction enzyme ClaI (manufactured by TAKARA BIO INC.) and blunt-ended. Into this site was inserted a 1.63 Kb fragment obtained by cleaving pGFP-C1 (manufactured by TOYOBO) with restriction enzyme Bsu36I (manufactured by Daiichi Pure Chemicals Co., Ltd.) followed by blunt-ending, whereby pMSRα neo was prepared. Human dopamine transporter cDNA was amplified from human substantia nigra cDNA library by PCR, and inserted into the pCRII vector (manufactured by Invitrogen). The base sequence was confirmed, modified and subcloned to pMSRα neo, whereby a human dopamine transporter expression plasmid was constructed.
(§1) The monoamine transporter expression plasmids thus prepared were introduced into CHO-K1 cells using FuGENE6 (manufactured by Roche Diagnostics) and according to the attached protocol, whereby each expressing cell was established.
CHO cells stably expressing human dopamine transporter were used for the measurement of human dopamine transporter inhibitory activity. Unless otherwise indicated, these CHO cells were cultured in Ham/F12 medium (Invitrogen) containing 10% fetal bovine serum (MOREGATE).
(§2) One day before the assay, the cultured cells that reached almost confluent were rinsed with PBS (Invitrogen), detached with Trypsin/EDTA (Invitrogen), and collected by a centrifugal operation. The obtained cells were counted, and diluted to 3×10^5 cells per 1 mL medium, and the mixture was dispensed to a 96 well white plate (Corning) at 100 μL per well, and cultured overnight in a CO2 incubator.
(§3) On the day of the test, an assay buffer (126 mM NaCl, 4.95 mM KCl, 1.26 mM KH2PO4, 1.26 mM MgSO4, 10 mM HEPES, 2.32 mM CaCl2, 5.52 mM Glucose, 0.5% BSA) was prepared, the medium in the cell plate was removed and the assay buffer was added by 80 μL. A test compound was diluted with the assay buffer to a 10-fold concentration of the final concentration, and the mixture was dispensed to a 96 well polypropylene plate. The diluted test compound was dispensed to the cell plate by 10 μL. [3H]-Dopamine (GE Healthcare) was diluted with the assay buffer to 200 nM, cold dopamine was diluted to 10 μM, and the mixture was dispensed to the cell plate by 10 μL. At 60 min from [3H]-dopamine addition, the assay buffer was removed by suction, and the plate was washed twice with 150 μL of PBS (Invitrogen) per well. Microscinti20 (PerkinElmer) was dispensed to each well by 100 μL, and the mixture was stirred for about 30 min. The radioactivity was measured by TopCount (PerkinElmer).
The inhibitory activity of each compound (10 μM) was calculated as a relative activity value based on the inhibitory activity of 100 μM Nomifensine (dopamine transporter inhibitor) as 100%.
The inhibitory activity of each compound (1 μM) was m calculated as a relative activity value based on the inhibitory activity of 100 μM Nomifensine (dopamine transporter inhibitor) as 100%.

[2] = biological target: T2, human norepinephrine transporter (Homo sapiens, UniProt P23975); experiment: Inhibitory action on human norepinephrine transporter ([3H]-norepinephrine uptake in CHO cells); conditions: relative to inhibitory activity of 10 μM DMI as 100%; for inhibition at 1 µM / inhibition at 10 µM: CHO, read-out: inhibitory rate (%)
T2 construct: expressed in transfected cells
Description: (§4) Human serotonin transporter cDNA was amplified from human brain cDNA library by PCR, and inserted into pCRII-TOPO vector (manufactured by Invitrogen). The base sequence was confirmed and modified, and subcloned to pcDNA3.1 vector (manufactured by Invitrogen), whereby a human serotonin transporter expression plasmid was constructed. Human norepinephrine transporter cDNA was purchased from Invitrogen, and the base sequence was confirm and modified, and subcloned to pcDNA3.1 vector, whereby a human norepinephrine transporter expression plasmid was constructed.
as §1
CHO cells stably expressing human norepinephrine transporter were used for the measurement of human norepinephrine transporter inhibitory activity. Unless otherwise indicated, these CHO cells were cultured in Ham/F12 medium (Invitrogen) containing 10% fetal bovine serum (MOREGATE).
as §2, with “The” for “One day before the assay, the”
as §3, with “Then,” for “On the day of the test,”, “[3H]-Norepinephrine” for “[3H]-Dopamine”, “nM,” for “nM, cold dopamine was diluted to 10 μM,”, “45” for “60”, “[3H]-norepinephrine” for “[3H]-dopamine”
The inhibitory activity of each compound (10 μM) was calculated as a relative activity value based on the inhibitory activity of 10 μM DMI (norepinephrine transporter inhibitor) as 100%.
The inhibitory activity of each compound (1 μM) was calculated as a relative activity value based on the inhibitory activity of 10 μM DMI (norepinephrine transporter inhibitor) as 100%.

[3] = biological target: T3, human serotonin transporter (Homo sapiens, UniProt P31645); experiment: Inhibitory action on human serotonin transporter ([3H]-5-hydroxytryptamine uptake in CHO cells); conditions: relative to inhibitory activity of 10 μM Paroxetine as 100%; for inhibition at 1 µM / inhibition at 10 µM: CHO, read-out: inhibitory rate (%)
T3 construct: expressed in transfected cells
Description: as §4, §1
CHO cells stably expressing a human serotonin transporter were used for the measurement of human serotonin transporter inhibitory activity. Unless particularly indicated, these CHO cells were cultured in a Ham/F12 medium (Invitrogen) containing 10% fetal bovine serum (MOREGATE).
as §2, with “The” for “One day before the assay, the”, “medium,” for “medium, and”
as §3, with “Then,” for “On the day of the test,”, “[3H]-5-Hydroxytryptamine” for “[3H]-Dopamine”, “nM,” for “nM, cold dopamine was diluted to 10 μM,”, “20” for “60”, “[3H]-5-hydroxytryptamine” for “[3H]-dopamine”
The inhibitory activity of each compound (10 μM) was calculated as a relative activity value based on the inhibitory activity of 10 μM Paroxetine (serotonin transporter inhibitor) as 100%.
In addition, the inhibitory activity of each compound (1 μM) was calculated as a relative activity value based on the inhibitory activity of 10 μM Paroxetine (serotonin transporter inhibitor) as 100%.

[4] = compound 10 μM, CHO cells expressing human serotonin transporter

T2 sequence (P23975 whole entry): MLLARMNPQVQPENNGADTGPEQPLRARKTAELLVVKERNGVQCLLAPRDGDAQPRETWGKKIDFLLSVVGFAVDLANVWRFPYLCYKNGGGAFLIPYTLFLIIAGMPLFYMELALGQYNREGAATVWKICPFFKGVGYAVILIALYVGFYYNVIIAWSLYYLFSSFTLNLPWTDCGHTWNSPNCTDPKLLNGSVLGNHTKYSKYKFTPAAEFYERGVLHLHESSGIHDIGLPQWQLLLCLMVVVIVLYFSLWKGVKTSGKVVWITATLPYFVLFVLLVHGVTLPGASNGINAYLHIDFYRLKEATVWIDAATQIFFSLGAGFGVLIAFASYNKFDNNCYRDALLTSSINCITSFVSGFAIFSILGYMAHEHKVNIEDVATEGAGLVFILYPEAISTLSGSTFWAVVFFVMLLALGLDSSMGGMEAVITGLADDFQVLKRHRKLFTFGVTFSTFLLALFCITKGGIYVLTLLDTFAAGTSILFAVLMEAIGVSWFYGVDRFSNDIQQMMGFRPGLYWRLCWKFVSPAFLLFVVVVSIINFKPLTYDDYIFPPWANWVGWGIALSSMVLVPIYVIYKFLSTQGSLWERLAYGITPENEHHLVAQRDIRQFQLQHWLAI
T3 sequence (P31645 whole entry): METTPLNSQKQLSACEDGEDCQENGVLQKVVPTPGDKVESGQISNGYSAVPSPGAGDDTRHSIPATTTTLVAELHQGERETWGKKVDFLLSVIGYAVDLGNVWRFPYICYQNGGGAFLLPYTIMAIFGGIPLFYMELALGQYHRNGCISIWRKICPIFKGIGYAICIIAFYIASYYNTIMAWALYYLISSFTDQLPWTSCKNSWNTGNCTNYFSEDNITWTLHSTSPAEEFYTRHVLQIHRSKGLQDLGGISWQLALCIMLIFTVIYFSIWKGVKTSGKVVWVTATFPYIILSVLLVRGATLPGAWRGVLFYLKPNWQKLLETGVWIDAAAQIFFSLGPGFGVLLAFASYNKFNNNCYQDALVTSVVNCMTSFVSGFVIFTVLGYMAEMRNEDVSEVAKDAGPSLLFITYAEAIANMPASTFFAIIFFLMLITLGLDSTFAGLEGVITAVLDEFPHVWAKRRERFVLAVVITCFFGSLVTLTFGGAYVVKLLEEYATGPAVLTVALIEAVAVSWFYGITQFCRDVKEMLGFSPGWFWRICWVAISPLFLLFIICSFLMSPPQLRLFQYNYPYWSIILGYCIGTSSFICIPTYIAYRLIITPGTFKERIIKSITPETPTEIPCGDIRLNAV
T1 sequence (Q01959 whole entry): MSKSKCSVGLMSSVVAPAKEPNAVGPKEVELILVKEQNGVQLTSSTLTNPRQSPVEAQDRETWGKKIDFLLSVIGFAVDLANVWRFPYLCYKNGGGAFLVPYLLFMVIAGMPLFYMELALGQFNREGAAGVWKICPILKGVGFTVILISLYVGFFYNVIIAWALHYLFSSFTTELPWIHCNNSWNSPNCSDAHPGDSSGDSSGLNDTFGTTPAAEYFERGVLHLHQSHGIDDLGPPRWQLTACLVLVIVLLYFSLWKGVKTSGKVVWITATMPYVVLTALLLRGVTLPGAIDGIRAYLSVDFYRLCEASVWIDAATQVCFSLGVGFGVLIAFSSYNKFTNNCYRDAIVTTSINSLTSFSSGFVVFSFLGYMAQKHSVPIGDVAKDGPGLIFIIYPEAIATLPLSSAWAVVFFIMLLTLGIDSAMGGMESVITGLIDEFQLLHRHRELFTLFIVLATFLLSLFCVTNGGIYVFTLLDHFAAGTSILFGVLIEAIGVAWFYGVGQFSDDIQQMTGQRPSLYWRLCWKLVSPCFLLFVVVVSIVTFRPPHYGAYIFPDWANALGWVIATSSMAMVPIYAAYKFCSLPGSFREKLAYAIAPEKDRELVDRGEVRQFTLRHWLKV

SMILES | inhibition at 1 µM ([1]; compound 1 μM) | inhibition at 10 µM ([1]; compound 10 μM) | inhibition at 1 µM ([2]; compound 1 μM) | inhibition at 10 µM ([2]; compound 10 μM) | inhibition at 1 µM ([3]; compound 1 μM) | inhibition at 10 µM [3, 4] | inhibitory rate (%) ([1]; compound 1 μM) | inhibitory rate (%) ([1]; compound 10 μM) | inhibitory rate (%) ([2]; compound 1 μM) | inhibitory rate (%) ([2]; compound 10 μM) | inhibitory rate (%) ([3]; compound 1 μM) | inhibitory rate (%) [3, 4]
CS(=O)(=O)C[C@H]1CNCCOC1c1ccc(F)c(Cl)c1 (mixture of isomers) [Example 12, (6RS,7SR)-7-(3-chloro-4-fluorophenyl)-6-[(methylsulfonyl)methyl]-1,4-oxazepane monohydrochloride] | 39% | 90% | 97% | 100% | 87% | 97% |  |  |  |  |  | 
OC[C@H]1NCCOC[C@@H]1c1ccc(Cl)c(Cl)c1 (racemic) [Example 14, [(5RS,6SR)-6-(3,4-dichlorophenyl)-1,4-oxazepan-5-yl]methanol monohydrochloride] |  |  |  |  |  |  | 87% | 99% | 98% | 100% | 31% | 79%
COC1(c2ccc(Cl)c(Cl)c2)CNCCOC1 (racemic) [Example 17, (6RS)-6-(3,4-dichlorophenyl)-6-methoxy-1,4-oxazepane monohydrochloride] | 19% | 53% | 75% | 97% | 70% | 96% |  |  |  |  |  | 
NS(=O)(=O)NCC1(c2ccc(Cl)c(Cl)c2)CCNCCO1 (racemic) [Example 22, N-{[(7RS)-7-(3,4-dichlorophenyl)-1,4-oxazepan-7-yl]methyl}sulfamide monohydrochloride] | 25% | 63% | 97% | 99% | 82% | 98% |  |  |  |  |  | 
CS(=O)(=O)NCC1(c2ccc(Cl)c(Cl)c2)CNCCCO1 (racemic) [Example 24, N-{[(2RS)-2-(3,4-dichlorophenyl)-1,4-oxazepan-2-yl]methyl}methanesulfonamide monohydrochloride] | 20% | 50% | 94% | 99% | 87% | 99% |  |  |  |  |  | 

More lines, main results first:

inhibition at 1 µM ([1]; compound 1 μM) | inhibition at 10 µM ([1]; compound 10 μM) | inhibition at 1 µM ([2]; compound 1 μM) | inhibition at 10 µM ([2]; compound 10 μM) | inhibition at 1 µM ([3]; compound 1 μM) | inhibition at 10 µM [3, 4] | SMILES | inhibitory rate (%) ([1]; compound 1 μM) | inhibitory rate (%) ([1]; compound 10 μM) | inhibitory rate (%) ([2]; compound 1 μM) | inhibitory rate (%) ([2]; compound 10 μM) | inhibitory rate (%) ([3]; compound 1 μM) | inhibitory rate (%) [3, 4]
46% | 94% | 99% | 100% | 29% | 65% | OC[C@H]1OCCNC[C@H]1c1ccc(Cl)c(Cl)c1 (racemic) [Example 25, [(6RS,7SR)-6-(3,4-dichlorophenyl)-1,4-oxazepan-7-yl]methanol monohydrochloride] |  |  |  |  |  | 
64% |  | 98% |  | 100% |  | CS(=O)(=O)C[C@@H]1CNCCO[C@@H]1c1ccc(Cl)c(Cl)c1 (racemic) [Example 50, (6RS,7SR)-7-(3,4-dichlorophenyl)-6-[(methylsulfonyl)methyl]-1,4-oxazepane monohydrochloride] |  |  |  |  |  | 
29% |  | 97% |  | 99% |  | CCNC(=O)NC[C@@H]1CNCCO[C@@H]1c1ccc(Cl)c(Cl)c1 (racemic) [Example 52, 1-{[(6RS,7RS)-7-(3,4-dichlorophenyl)-1,4-oxazepan-6-yl]methyl}-3-ethylurea monohydrochloride] |  |  |  |  |  | 
64% |  | 100% |  | 98% |  | CC(=O)N[C@@H]1CNCCO[C@@H]1c1ccc(Cl)c(Cl)c1 (racemic) [Example 62, N-[(6RS,7RS)-7-(3,4-dichlorophenyl)-1,4-oxazepan-6-yl]acetamide monohydrochloride] |  |  |  |  |  | 
82% |  | 100% |  | 93% |  | CS(=O)(=O)N[C@@H]1CNCCO[C@@H]1c1ccc(Cl)c(Cl)c1 (racemic) [Example 63, N-[(6RS,7RS)-7-(3,4-dichlorophenyl)-1,4-oxazepan-6-yl]methanesulfonamide monohydrochloride] |  |  |  |  |  | 
